One experiment has as its target ATR/ATRIP (Homo sapiens (Human), UniProt Q13535). Put plainly: ATR/ATRIP kinase assay (TR-FRET, p53 Ser15 phosphorylation). To be noted: 0.5 μM ATP, 50 nM p53. Type of experiment: biochemical. As to the method: ATR/ATRIP Kinase Assay—Measurement of ATR/ATRIP Inhibition
The IC50 value was determined by an ATR/ATRIP enzymatic assay. The assay comprises two steps: the enzymatic reaction and the detection step. First, a mixture of ATR/ATRIP protein (Ataxia Telangiectasia and Rad3-related protein/ATR interacting protein), the compound in question at different concentrations, p53 as substrate protein and adenosine triphosphate (ATP) are incubated in assay buffer. ATR phosporylates p53 at Ser15 and other residues. The amount of phosphorylated p53 is then detected using specific antibodies and the TR-FRET assay technology.
In detail: The ATR/ATRIP enzymatic assay is performed as a TR-FRET-(HTRF™, Cisbio Bioassays) based 384-well assay. In a first step, purified human recombinant ATR/ATRIP (human ATR, full length, GenBank ID: NM_001184.3, and human ATRIP, full length, GenBank ID AF451323.1, co-expressed in a mammalian cell line) is incubated in assay buffer for 15 minutes at 22° C. with test compound at different concentrations or without test compound (as a negative control). The assay buffer contains 25 mM HEPES pH 8.0, 10 mM Mg(CH3COO)2, 1 mM MnCl2, 0.1% BSA, 0.01% Brij® 35, and 5 mM dithiothreitol (DTT). An Echo 555 (Labcyte) is used for dispensing of compound solutions. Then, in a second step, purified human recombinant cmyc-tagged p53 (human p53, full length, GenBank ID: BC003596, expressed in Sf21 insect cells) and ATP are added and the reaction mixture is incubated for 25-35 minutes, typically 25 minutes, at 22° C. The pharmacologically relevant assay volume is 5 μl. The final concentrations in the assay during incubation of the reaction mixture are 0.3-0.5 nM, typically 0.3 nM, ATR/ATRIP, 50 nM p53, and 0.5 μM ATP. The enzymatic reaction is stopped by the addition of EDTA. The generation of phosphorylated p53 as a result of the ATR mediated reaction in the presence of ATP is detected by using specific antibodies [labeled with the fluorophores europium (Eu) as donor and d2 as acceptor (Cisbio Bioassays)] enabling FRET. For this purpose, 2 μl of antibody-containing stop solution (12.5 mM HEPES pH 8.0, 125 mM EDTA, 30 mM sodium chloride, 300 mM potassium fluoride, 0.006% Tween-20, 0.005% Brij® 35, 0.21 nM anti-phospho-p53(Ser15)-Eu antibody, 15 nM anti-cmyc-d2 antibody) are added to the reaction mixture. Following signal development for 2 h the plates are analyzed in an EnVision (PerkinElmer) microplate reader using the TRF mode with laser excitation. Upon excitation of the donor europium at 340 nm the emitted fluorescence light of the acceptor d2 at 665 nm as well as from the donor Eu at 615 nm are measured. The amount of phosphorylated p53 is directly proportional to the ratio of the amounts of emitted light i.e. the ratio of the relative fluorescence units (rfu) at 665 nm and 615 nm. Data are processed employing the Genedata Screener software. In particular, IC50 values are determined in the usual manner by fitting a dose-response curve to the data points using nonlinear regression analysis. • IC50=half maximal inhibitory concentration • ATP=Adenosine triphosphate • TR-FRET=Time-Resolved Fluorescence Resonance Energy Transfer • HTRF®=Homogeneous Time Resolved Fluorescence • HEPES=2-(4-(2-Hydroxyethyl)-1-piperazinyl)-ethanesulfonic acid • Mg(CH3COO)2=Magnesium acetate • MnCl2=Manganese(II)-chloride • BSA=Bovine Serum Albumin • EDTA=Ethylendiamine Tetraacetate • TRF=Time Resolved Fluorescence pCHK1 Cellular Assay
For orientation: Time-resolved FRET reads energy transfer from a long-lived donor to a nearby acceptor.

In experiment [1] the test system is phosphorylation of Chk1 (Ser 345) in HT29 colon adenocarcinoma cells. Put plainly: pCHK1 cellular assay. Type of experiment: cell-based. The settings on record: Homo sapiens, HT-29, hydroxyurea 3 mM, 4 h. The source says: Chk1 kinase acts downstream of ATR and has a key role in DNA damage checkpoint control. Activation of Chk1 involves phosphorylation of Ser317 and Ser345 (regarded as the preferential target for phosphorylation/activation by ATR) and occurs in response to blocked DNA replication and certain forms of genotoxic stress. Phosphorylation at Ser 345 serves to localize Chk1 to the nucleus following checkpoint activation.
This assay measures a decrease in phosphorylation of Chk1 (Ser 345) in HT29 colon adenocarcinoma cells following treatment with compound and hydroxyurea (which promotes fork stalling because of dNTP depletion) and using an immunocytochemical procedure and high content imaging.
For the assay HT29 cells are plated in culture medium (DMEM high Glucose (no phenol red), 2 mM Glutamax, 1 mM Pyruvate, 10% FCS into Greiner 384 well plates, black, μclear #781090 (2500 cells/well/30 μl) and incubated for at least 20 hours at 37° C., 10% CO2 and 90% rH. Diluted test compounds (1 nM-30 μM final) and hydroxyurea (3 mM final) are added simultaneously and cells are incubated for 4 h at 37° C. After fixation/prmeabilisation with 100% MeOH (−20° C. cold) and permeabilisation with 0.2% Triton X-100 a complete immunocytochemical procedure is performed using a specific anti-pChk1 antibody (Cell Signaling, #2348BF) and fluorescently labelled secondary antibody (Alexa Fluor® 488 goat anti-rabbit F(ab′)2 fragment, Invitrogen A11070) and parallel nuclear staining for cell counting.
The nuclear localised pChk1 signal is detected on an ImageXpress Ultra confocal high content reader and reported as % positive cells (nuclei).

SMILES strings stand for the structures.

The term IC50 denotes the concentration that inhibits the measured activity by half. High values mean weaker potency in that assay, low ones greater potency in that assay.

Chain of ATR/ATRIP (Q13535 whole entry): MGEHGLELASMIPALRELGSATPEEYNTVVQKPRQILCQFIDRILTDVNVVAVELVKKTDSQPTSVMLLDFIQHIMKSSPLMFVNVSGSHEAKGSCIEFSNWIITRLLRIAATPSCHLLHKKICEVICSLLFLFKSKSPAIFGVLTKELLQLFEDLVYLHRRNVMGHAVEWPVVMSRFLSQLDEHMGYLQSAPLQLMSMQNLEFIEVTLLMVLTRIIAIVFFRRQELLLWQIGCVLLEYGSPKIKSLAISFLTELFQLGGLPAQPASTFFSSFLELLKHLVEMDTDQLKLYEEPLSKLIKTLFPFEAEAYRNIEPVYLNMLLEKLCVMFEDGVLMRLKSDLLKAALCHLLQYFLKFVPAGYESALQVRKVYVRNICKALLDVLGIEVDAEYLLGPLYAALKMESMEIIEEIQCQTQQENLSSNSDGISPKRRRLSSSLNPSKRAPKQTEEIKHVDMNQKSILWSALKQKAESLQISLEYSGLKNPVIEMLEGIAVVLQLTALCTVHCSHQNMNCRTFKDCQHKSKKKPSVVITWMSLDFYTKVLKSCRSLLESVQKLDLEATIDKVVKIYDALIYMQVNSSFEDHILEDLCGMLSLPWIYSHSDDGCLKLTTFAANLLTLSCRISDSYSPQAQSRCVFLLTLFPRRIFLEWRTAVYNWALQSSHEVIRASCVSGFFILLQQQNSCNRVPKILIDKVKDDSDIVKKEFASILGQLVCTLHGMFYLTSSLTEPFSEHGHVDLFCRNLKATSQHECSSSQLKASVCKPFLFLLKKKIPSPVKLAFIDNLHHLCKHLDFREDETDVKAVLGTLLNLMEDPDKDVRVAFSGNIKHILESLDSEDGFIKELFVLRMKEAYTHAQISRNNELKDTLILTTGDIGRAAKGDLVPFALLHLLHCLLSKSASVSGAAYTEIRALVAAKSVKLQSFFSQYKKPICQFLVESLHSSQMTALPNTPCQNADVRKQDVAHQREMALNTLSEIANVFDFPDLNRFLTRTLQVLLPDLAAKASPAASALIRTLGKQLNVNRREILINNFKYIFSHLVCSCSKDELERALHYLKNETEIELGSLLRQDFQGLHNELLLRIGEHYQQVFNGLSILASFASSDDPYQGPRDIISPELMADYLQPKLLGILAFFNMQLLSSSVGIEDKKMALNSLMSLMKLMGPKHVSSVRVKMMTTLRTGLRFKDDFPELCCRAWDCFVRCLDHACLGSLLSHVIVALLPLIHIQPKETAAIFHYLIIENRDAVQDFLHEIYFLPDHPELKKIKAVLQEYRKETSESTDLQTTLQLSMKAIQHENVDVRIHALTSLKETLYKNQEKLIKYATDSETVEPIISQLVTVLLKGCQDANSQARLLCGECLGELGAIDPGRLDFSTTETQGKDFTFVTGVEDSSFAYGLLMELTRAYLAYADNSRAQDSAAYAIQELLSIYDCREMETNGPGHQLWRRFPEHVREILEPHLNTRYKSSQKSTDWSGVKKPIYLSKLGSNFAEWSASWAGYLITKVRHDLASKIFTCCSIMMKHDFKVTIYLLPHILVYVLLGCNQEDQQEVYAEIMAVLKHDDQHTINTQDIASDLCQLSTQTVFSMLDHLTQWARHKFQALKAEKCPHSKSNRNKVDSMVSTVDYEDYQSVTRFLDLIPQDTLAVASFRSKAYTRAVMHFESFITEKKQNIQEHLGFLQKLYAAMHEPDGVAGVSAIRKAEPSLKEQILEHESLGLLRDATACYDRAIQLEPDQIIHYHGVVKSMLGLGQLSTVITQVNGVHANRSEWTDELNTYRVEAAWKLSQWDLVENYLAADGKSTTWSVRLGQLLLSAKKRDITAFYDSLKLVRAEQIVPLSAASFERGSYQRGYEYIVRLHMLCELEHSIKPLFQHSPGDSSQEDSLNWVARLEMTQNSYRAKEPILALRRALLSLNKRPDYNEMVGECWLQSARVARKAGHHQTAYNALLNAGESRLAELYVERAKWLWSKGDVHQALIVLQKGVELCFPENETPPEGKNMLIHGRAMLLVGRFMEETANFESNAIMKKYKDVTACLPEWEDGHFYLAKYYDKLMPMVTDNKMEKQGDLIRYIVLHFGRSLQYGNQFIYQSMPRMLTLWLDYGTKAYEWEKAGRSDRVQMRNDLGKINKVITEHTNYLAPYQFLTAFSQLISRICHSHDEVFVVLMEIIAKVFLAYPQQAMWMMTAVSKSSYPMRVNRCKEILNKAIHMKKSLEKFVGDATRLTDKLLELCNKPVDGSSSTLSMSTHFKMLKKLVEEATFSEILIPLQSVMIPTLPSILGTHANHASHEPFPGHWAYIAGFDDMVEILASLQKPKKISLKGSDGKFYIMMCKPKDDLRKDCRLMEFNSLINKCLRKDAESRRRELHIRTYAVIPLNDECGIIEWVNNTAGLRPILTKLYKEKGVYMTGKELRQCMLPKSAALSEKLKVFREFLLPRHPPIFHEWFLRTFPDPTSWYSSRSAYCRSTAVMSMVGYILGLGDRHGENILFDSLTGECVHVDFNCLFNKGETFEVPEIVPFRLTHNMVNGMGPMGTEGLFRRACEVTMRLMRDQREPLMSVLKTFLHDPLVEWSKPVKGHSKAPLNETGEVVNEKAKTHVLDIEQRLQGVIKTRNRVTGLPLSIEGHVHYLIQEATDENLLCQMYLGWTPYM
Chain of ATR/ATRIP (Q8WXE1 whole entry partner): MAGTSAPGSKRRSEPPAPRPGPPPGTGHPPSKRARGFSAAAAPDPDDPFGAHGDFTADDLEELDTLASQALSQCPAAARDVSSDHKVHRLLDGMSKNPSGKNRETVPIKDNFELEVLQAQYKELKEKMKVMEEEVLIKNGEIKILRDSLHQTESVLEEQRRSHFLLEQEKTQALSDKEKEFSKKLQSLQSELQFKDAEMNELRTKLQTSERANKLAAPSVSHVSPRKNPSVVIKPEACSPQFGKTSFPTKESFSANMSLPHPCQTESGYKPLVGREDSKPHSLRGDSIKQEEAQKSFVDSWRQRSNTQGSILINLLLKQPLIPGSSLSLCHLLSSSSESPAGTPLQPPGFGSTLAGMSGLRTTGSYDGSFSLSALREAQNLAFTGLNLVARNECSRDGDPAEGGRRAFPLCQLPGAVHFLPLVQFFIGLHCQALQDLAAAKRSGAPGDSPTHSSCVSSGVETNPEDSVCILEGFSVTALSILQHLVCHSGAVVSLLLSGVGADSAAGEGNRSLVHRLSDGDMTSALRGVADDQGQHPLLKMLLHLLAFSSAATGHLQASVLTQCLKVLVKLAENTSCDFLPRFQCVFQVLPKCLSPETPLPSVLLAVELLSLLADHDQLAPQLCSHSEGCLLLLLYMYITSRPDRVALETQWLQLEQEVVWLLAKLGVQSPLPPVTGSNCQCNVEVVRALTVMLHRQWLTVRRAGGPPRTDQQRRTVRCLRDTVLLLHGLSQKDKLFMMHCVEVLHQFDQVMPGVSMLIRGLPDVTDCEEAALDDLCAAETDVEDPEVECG

In the case of `C[C@@H]1COCCN1c1ccc2c(n1)c(-c1cc[nH]n1)nn2-c1cccc(S(C)(=O)=O)c1` [Compound 47, 1-(3-Methanesulfonyl-phenyl)-5-((R)-3-methyl-morpholin-4-yl)-3-(1H-pyrazol-3-yl)-1H-pyrazolo[4,3-b]pyridine], the half-inhibitory concentration (IC50) on ATR/ATRIP was 0.089 µM; in experiment [1], 1 to 10 µM.

As to `CNC(=O)c1cc(N2CCOC[C@H]2C)nc2c(-c3cc[nH]n3)nn(C)c12` [Compound 31, 1-Methyl-5-((R)-3-methyl-morpholin-4-yl)-3-(1H-pyrazol-3-yl)-1H-pyrazolo[4,3-b]pyridine-7-carboxylic acid methylamide], the 50% inhibitory concentration (IC50) against ATR/ATRIP was 0.033 µM; in experiment [1], 0.1 to 1 µM.

Consider `C[C@@H]1COCCN1c1cc(C(N)=O)c2[nH]nc(-c3cc[nH]n3)c2n1` [Compound 29, 5-((R)-3-Methyl-morpholin-4-yl)-3-(1H-pyrazol-3-yl)-1H-pyrazolo[4,3-b]pyridine-7-carboxylic acid amide], for which the IC50 was 0.0054 µM at ATR/ATRIP and 1 to 10 µM in experiment [1].

In the case of `C[C@@H]1COCCN1c1ccc2c(n1)c(-c1cc[nH]n1)nn2CC1CC1` [Compound 63, (3R)-4-[1-(Cyclopropylmethyl)-3-(1H-pyrazol-3-yl)-1H-pyrazolo[4,3-b]pyridin-5-yl]-3-methylmorpholine], the IC50 on ATR/ATRIP was 0.027 µM; in experiment [1], 0.1 to 1 µM.

Consider `CC(c1cc(N2CCOC[C@H]2C)nc2c(-c3cc[nH]n3)nn(C)c12)S(C)(=O)=O` (stereo partly drawn) [Compound 89, (3R)-4-[7-(1-Methanesulfonylethyl)-1-methyl-3-(1H-pyrazol-3-yl)-1H-pyrazolo[4,3-b]pyridin-5-yl]-3-methylmorpholine], for which the values for the IC50 (against ATR/ATRIP; in experiment [1]) were 0.0009 µM and 1 to 10 µM, respectively.

As to `C[C@@H]1COCCN1c1cc(C(=O)N(C)C)c2c(n1)c(-c1cc[nH]n1)nn2C` [Compound 30, 1-Methyl-5-((R)-3-methyl-morpholin-4-yl)-3-(1H-pyrazol-3-yl)-1H-pyrazolo[4,3-b]pyridine-7-carboxylic acid dimethylamide], the IC50 at ATR/ATRIP was 0.015 µM; in experiment [1] it was 0.1 to 1 µM.

For `Cc1cc(-c2n[nH]c3c(-c4ccc(S(C)(=O)=O)nc4C)cc(N4CCOC[C@H]4C)nc23)[nH]n1` [Compound 13, (3R)-4-[7-(6-Methanesulfonyl-2-methylpyridin-3-yl)-3-(3-methyl-1H-pyrazol-5-yl)-1H-pyrazolo[4,3-b]pyridin-5-yl]-3-methylmorpholine], the IC50 at ATR/ATRIP was 0.0014 µM; in experiment [1] it was 0.1 to 1 µM.

As for `C[C@@H]1COCCN1c1ccc2c(n1)c(-c1cc[nH]n1)nn2CCc1ccccc1` [Compound 64, 5-((R)-3-Methyl-morpholin-4-yl)-1-phenethyl-3-(1H-pyrazol-3-yl)-1H-pyrazolo[4,3-b]pyridine], the IC50 is 0.051 µM on ATR/ATRIP and 1 to 10 µM in experiment [1].

On to `C[C@@H]1COCCN1c1cc(-c2ccccn2)c2[nH]nc(-c3cc[nH]n3)c2n1` [Compound 38, (3R)-3-Methyl-4-[3-(1H-pyrazol-3-yl)-7-(pyridin-2-yl)-1H-pyrazolo[4,3-b]pyridin-5-yl]morpholine], for which the concentration for half-maximal inhibition (IC50) is 0.0043 µM against ATR/ATRIP and 0.1 to 1 µM in experiment [1].

Regarding `Cc1nc(S(C)(=O)=O)ccc1-c1cc(N2CCOC[C@H]2C)nc2c(-c3cc[nH]n3)n[nH]c12` [Compound 12, 7-(6-Methanesulfonyl-2-methyl-pyridin-3-yl)-5-((R)-3-methyl-morpholin-4-yl)-3-(1H-pyrazol-3-yl)-1H-pyrazolo[4,3-b]pyridine], the concentration for half-maximal inhibition (IC50) was 0.0008 µM on ATR/ATRIP and 0.1 to 1 µM in experiment [1].

With `C[C@@H]1COCCN1c1ccc2c(n1)c(-c1cc[nH]n1)nn2Cc1cccc(S(C)(=O)=O)c1` [Compound 57, (3R)-4-{1-[(3-Methanesulfonylphenyl)methyl]-3-(1H-pyrazol-3-yl)-1H-pyrazolo[4,3-b]pyridin-5-yl}-3-methylmorpholine], the 50% inhibitory concentration (IC50) against ATR/ATRIP was 0.15 µM; in experiment [1], 1 to 10 µM.

Take `C[C@@H]1COCCN1c1cc(-c2ccn(CCO)n2)c2c(n1)c(-c1cc[nH]n1)nn2C` [Compound 37, 2-{3-[1-Methyl-5-((R)-3-methyl-morpholin-4-yl)-3-(1H-pyrazol-3-yl)-1H-pyrazolo[4,3-b]pyridin-7-yl]-pyrazol-1-yl}-ethanol]: the IC50 was 0.0079 µM against ATR/ATRIP and 0.1 to 1 µM in experiment [1].

As to `C[C@@H]1COCCN1c1ccc2c(n1)c(-c1cc[nH]n1)nn2CC(C)(C)O` [Compound 85, 2-Methyl-1-{5-[(3R)-3-methylmorpholin-4-yl]-3-(1H-pyrazol-3-yl)-1H-pyrazolo[4,3-b]pyridin-1-yl}propan-2-ol], the figures for the concentration for half-maximal inhibition (IC50) (at ATR/ATRIP; in experiment [1]) were 0.021 µM and 1 to 10 µM, respectively.

Turning to `C[C@@H]1COCCN1c1ccc2c(n1)c(-c1cc[nH]n1)nn2C(C)(C)CO` [Compound 86, 2-Methyl-2-{5-[(3R)-3-methylmorpholin-4-yl]-3-(1H-pyrazol-3-yl)-1H-pyrazolo[4,3-b]pyridin-1-yl}propan-1-ol], the results for the half-maximal inhibitory concentration (IC50) (against ATR/ATRIP; in experiment [1]) were 0.024 µM and 1 to 10 µM, respectively.

For the compound `C[C@@H]1COCCN1c1cc(-c2ccccn2)c2c(n1)c(-c1cc[nH]n1)nn2C` [Compound 58, (3R)-3-Methyl-4-[1-methyl-3-(1H-pyrazol-3-yl)-7-(pyridin-2-yl)-1H-pyrazolo[4,3-b]pyridin-5-yl]morpholine], the values for the IC50 (at ATR/ATRIP; in experiment [1]) were 0.01 µM and 0.1 to 1 µM, respectively.

With `C[C@@H]1COCCN1c1ccc2c(n1)c(-c1cc[nH]n1)nn2-c1ccc(C#N)cc1` [Compound 60, 4-[5-[(3R)-3-Methylmorpholin-4-yl]-3-(1H-pyrazol-3-yl)-1H-pyrazolo[4,3-b]pyridin-1-yl]benzonitrile], the figures for the IC50 (against ATR/ATRIP; in experiment [1]) were 0.032 µM and 1 to 10 µM, respectively.

As for `Cc1cccc(-c2cc(N3CCOC[C@H]3C)nc3c(-c4cc[nH]n4)nn(C)c23)n1` [Compound 33, 1-Methyl-5-((R)-3-methyl-morpholin-4-yl)-7-(6-methyl-pyridin-2-yl)-3-(1H-pyrazol-3-yl)-1H-pyrazolo[4,3-b]pyridine], the IC50 is 0.016 µM against ATR/ATRIP and 0.1 to 1 µM in experiment [1].

Take `Cc1ccc(-c2cc(N3CCOC[C@H]3C)nc3c(-c4cc(C)n[nH]4)n[nH]c23)cn1` [Compound 3, (3R)-3-Methyl-4-[3-(3-methyl-1H-pyrazol-5-yl)-7-(6-methylpyridin-3-yl)-1H-pyrazolo[4,3-b]pyridin-5-yl]morpholine]: the concentration for half-maximal inhibition (IC50) on ATR/ATRIP was 0.0009 µM; in experiment [1], 0.01 to 0.1 µM.

For the origin of these results see US12371430B2, “5-morpholin-4-yl-pyrazolo[4,3-b]pyridine derivatives” (Merck Patent GmbH, priority 2018, dated 2025).
